# Read-outs that look alike come from different tables or passages of the source.
# Target: T1, IKZF2 (Homo sapiens, UniProt Q96SW2+Q9UKS7)
# T1 construct: CRISPR/Cas9—mediated insertion of the HiBiT peptide tag (Promega™) to the N-terminus of the IKZF2 gene locus; endogenous in cells; host or cells: MOLT4 cells, with CRISPR/Cas9 knock-in of HiBiT at the endogenous IKZF2 locus
# Experiment: HiBit-IKZF2 assay (HiBiT-Helios degradation in MOLT4 cells)
# Type: cell-based
# Conditions: for Dmax: 10 μM to 0.00026 μM; for DC50: concentration at which 50% of HiBiT-Helios degradation was achieved
# Description: The HiBiT protein tagging system was applied to MOLT4 cells via a CRISPR/Cas9—mediated insertion of the HiBiT peptide tag (Promega™) to the N-terminus of the IKZF2 gene locus (Neon™ Transfection System). The resulting HiBiT-Helios stable cell line was treated with the following compounds in triplicates following a 13-point concentration scheme ranging from 10 μM to 0.00026 μM. At the indicated timepoints, the Nano-Glo® HiBiT Lytic Detection System (Promega™) was utilized for detecting bioluminescence of the HiBiT tag in treated cells: abundance of the tag is proportionate to the level of luminescence. Following normalization to DMSO, dose-response curves were plotted (GraphPad Prism) to determine the concentration points at which 50% of HiBiT-Helios degradation was achieved by each compound. The extent of degradation (range of luminescence) from the highest to lowest concentration points was calculated to determine the Dmax.
# [1] = MOLT-4, extent of degradation from highest to lowest concentration, read-out: Dmax
# T1 sequence (Q9UKS7 whole entry): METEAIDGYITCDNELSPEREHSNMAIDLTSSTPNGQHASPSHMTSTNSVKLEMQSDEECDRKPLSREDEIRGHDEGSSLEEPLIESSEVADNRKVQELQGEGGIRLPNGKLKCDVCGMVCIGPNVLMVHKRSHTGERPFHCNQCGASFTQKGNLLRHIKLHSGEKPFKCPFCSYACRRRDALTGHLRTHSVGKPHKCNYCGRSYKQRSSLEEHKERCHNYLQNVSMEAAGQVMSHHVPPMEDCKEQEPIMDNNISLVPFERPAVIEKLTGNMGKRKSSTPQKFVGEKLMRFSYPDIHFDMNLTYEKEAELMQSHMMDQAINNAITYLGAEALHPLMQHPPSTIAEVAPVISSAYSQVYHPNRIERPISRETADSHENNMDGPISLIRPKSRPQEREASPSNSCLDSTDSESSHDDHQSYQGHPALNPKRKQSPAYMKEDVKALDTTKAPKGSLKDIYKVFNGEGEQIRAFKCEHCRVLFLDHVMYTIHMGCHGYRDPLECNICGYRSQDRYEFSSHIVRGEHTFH
# T1 sequence (Q96SW2 whole entry): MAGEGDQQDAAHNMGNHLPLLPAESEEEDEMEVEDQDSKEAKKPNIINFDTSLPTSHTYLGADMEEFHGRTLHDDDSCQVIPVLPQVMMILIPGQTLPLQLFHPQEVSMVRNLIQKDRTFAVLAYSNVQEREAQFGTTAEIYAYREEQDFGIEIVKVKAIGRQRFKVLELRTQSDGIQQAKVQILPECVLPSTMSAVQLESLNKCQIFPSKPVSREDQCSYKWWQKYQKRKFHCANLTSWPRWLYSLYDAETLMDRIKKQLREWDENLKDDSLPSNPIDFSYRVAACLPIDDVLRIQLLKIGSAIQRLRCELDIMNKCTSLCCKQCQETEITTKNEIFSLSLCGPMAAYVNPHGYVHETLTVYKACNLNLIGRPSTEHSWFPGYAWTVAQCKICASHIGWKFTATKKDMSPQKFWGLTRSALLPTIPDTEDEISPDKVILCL
# T1 sequence (Q16531 whole entry partner): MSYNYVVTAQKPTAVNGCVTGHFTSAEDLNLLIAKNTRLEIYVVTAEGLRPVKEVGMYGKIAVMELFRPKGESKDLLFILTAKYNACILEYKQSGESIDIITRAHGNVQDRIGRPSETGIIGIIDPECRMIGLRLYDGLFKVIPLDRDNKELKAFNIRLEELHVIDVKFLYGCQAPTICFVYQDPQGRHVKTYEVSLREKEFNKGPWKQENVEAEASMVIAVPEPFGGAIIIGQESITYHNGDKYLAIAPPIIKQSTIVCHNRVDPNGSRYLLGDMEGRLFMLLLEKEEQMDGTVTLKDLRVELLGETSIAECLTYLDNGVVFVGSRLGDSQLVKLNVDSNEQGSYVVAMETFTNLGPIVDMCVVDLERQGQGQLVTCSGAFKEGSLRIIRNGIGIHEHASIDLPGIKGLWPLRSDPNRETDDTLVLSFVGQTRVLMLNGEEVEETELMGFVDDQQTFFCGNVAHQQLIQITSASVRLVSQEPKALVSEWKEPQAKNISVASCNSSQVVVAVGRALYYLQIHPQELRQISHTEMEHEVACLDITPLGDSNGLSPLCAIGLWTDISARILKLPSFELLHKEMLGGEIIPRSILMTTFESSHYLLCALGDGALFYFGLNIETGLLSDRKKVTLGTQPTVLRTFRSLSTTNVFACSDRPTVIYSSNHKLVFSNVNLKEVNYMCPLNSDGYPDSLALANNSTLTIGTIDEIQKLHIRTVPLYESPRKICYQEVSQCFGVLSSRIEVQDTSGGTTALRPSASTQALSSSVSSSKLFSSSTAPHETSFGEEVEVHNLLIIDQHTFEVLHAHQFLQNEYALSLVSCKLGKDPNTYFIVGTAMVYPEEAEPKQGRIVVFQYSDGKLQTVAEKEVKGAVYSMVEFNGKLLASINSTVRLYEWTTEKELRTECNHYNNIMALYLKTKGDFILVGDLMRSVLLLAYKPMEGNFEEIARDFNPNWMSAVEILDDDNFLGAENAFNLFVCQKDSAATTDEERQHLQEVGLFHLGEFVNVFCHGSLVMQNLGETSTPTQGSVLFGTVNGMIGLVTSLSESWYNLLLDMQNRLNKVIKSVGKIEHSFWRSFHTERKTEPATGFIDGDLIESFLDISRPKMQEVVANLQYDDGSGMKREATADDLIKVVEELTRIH
SMILES,Dmax [1] [%],DC50 [nM],Dmax (extent of degradation from highest to lowest concentration)
O=C1CCC(N2Cc3cc(C4(O)CCN(Cc5ccc6ccc(-c7ccccc7)nc6c5)CC4)ccc3C2=O)C(=O)N1 (stereo not drawn) [Compound 236],> 70,< 10,
N#Cc1ccc(CN2CCC(c3ccc4c(c3)CN(C3CCC(=O)NC3=O)C4=O)CC2)nc1Nc1ccccc1 (stereo not drawn) [Compound 186],50 to 70,30 to 150,
O=C1CCC(N2Cc3cc(C4CCN(Cc5ccc(N6CCCC6=O)cc5)CC4)ccc3C2=O)C(=O)N1 (stereo not drawn) [Compound 147],50 to 70,30 to 150,
O=C1CCC(N2Cc3cc(C4CCN(Cc5ccc6c(c5)C(=O)N(c5cccc(O)c5)C6)CC4)ccc3C2=O)C(=O)N1 (stereo not drawn) [Compound 217],> 70,< 10,
O=C1CCC(N2Cc3cc(C4CCN(Cc5cccc(NC(=O)c6ccccc6)c5)CC4)ccc3C2=O)C(=O)N1 (stereo not drawn) [Compound 50],50 to 70,10 to 30,
O=C1CCC(N2Cc3cc(C4CCN(Cc5nccc(Nc6ccccn6)n5)CC4)ccc3C2=O)C(=O)N1 (stereo not drawn) [Compound 102],50 to 70,10 to 30,
CC(c1ccccc1)N1CCC(O)(c2ccc3c(c2)CN(C2CCC(=O)NC2=O)C3=O)CC1 (stereo not drawn) [Compound 269],> 70,< 10,
O=C1CCC(N2Cc3cc(C4(O)CCN(Cc5ccc6c(c5)CCCO6)CC4)ccc3C2=O)C(=O)N1 (stereo not drawn) [Compound 275],> 70,< 10,
O=C1CCC(N2Cc3cc(C4CCN(Cc5cccc(S(=O)(=O)N6CC7(COC7)C6)c5)CC4)ccc3C2=O)C(=O)N1 (stereo not drawn) [Compound 62],50 to 70,30 to 150,
Cc1cnc(Nc2cccc(CN3CCC(c4ccc5c(c4)CN(C4CCC(=O)NC4=O)C5=O)CC3)c2)nc1 (stereo not drawn) [Compound 228],50 to 70,10 to 30,
N#Cc1ccccc1N1Cc2ccc(CN3CCC(c4ccc5c(c4)CN(C4CCC(=O)NC4=O)C5=O)CC3)cc2C1=O (stereo not drawn) [Compound 179],50 to 70,< 10,
O=C1CCC(N2Cc3cc(C4(O)CCN(Cc5ccc6c(c5)CCO6)CC4)ccc3C2=O)C(=O)N1 (stereo not drawn) [Compound 246],> 70,< 10,
O=C1CCC(N2Cc3cc(C4CCN(Cc5ccc6c(c5)C(=O)N(c5ncccn5)CC6)CC4)ccc3C2=O)C(=O)N1 (stereo not drawn) [Compound 182],50 to 70,30 to 150,
O=C1CCC(N2Cc3cc(C4CCN(Cc5cccc(S(=O)(=O)N6C7CCC6COC7)c5)CC4)ccc3C2=O)C(=O)N1 (stereo not drawn) [Compound 162],50 to 70,< 10,
O=C1CCC(N2Cc3cc(C4CCN(Cc5cccc(Nc6ccc(F)cn6)c5)CC4)ccc3C2=O)C(=O)N1 (stereo not drawn) [Compound 132],50 to 70,< 10,
O=C1CCC(N2Cc3cc(C4CCN(Cc5cccc(N6Cc7ccccc7C6=O)c5)CC4)ccc3C2=O)C(=O)N1 (stereo not drawn) [Compound 51],50 to 70,< 10,
O=C1CCC(N2Cc3cc(C4CCN(Cc5ccccc5Nc5ccccn5)CC4)ccc3C2=O)C(=O)N1 (stereo not drawn) [Compound 120],50 to 70,10 to 30,
O=C1CCC(N2Cc3cc(C4CCN(Cc5cccc(N6Cc7ncccc7C6=O)c5)CC4)ccc3C2=O)C(=O)N1 (stereo not drawn) [Compound 125],50 to 70,< 10,
O=C1CCC(N2Cc3cc(C4CCN(Cc5ccc6c(c5F)C(=O)N(c5ccccc5)C6)CC4)ccc3C2=O)C(=O)N1 (stereo not drawn) [Compound 213],,10 to 30,++ (“++” is from >50% to <70%)
O=C1CCC(N2Cc3cc(C4CCN(Cc5ccc6c(n5)C(=O)N(c5ccccc5)C6)CC4)ccc3C2=O)C(=O)N1 (stereo not drawn) [Compound 172],30 to 50,10 to 30,
CN(c1ccccc1)S(=O)(=O)c1cccc(CN2CCC(c3ccc4c(c3)CN(C3CCC(=O)NC3=O)C4=O)CC2)c1 (stereo not drawn) [Compound 98],50 to 70,< 10,
O=C1CCC(N2Cc3cc(C4(O)CCN(Cc5cccc(F)c5Cl)CC4)ccc3C2=O)C(=O)N1 (stereo not drawn) [Compound 254],> 70,< 10,
O=C1CCC(N2Cc3cc(C4(O)CCN(Cc5ccc6c(c5)C(=O)N(c5ccns5)C6)CC4)ccc3C2=O)C(=O)N1 (stereo not drawn) [Compound 225],> 70,< 10,
O=C1CCC(N2Cc3cc(C4CCN(Cc5cccc(N6C(=O)Cc7cccnc76)c5)CC4)ccc3C2=O)C(=O)N1 (stereo not drawn) [Compound 118],30 to 50,30 to 150,

SMILES,Dmax [1] [%],DC50 [nM],Dmax (extent of degradation from highest to lowest concentration)
N#Cc1ccccc1CN1CCC(O)(c2ccc3c(c2)CN(C2CCC(=O)NC2=O)C3=O)CC1 (stereo not drawn) [Compound 237],50 to 70,< 10,
O=C1CCC(N2Cc3cc(C4CCN(Cc5ccc6c(c5)S(=O)(=O)N(c5ccccc5)C6)CC4)ccc3C2=O)C(=O)N1 (stereo not drawn) [Compound 80],30 to 50,30 to 150,
O=C1CCC(N2Cc3cc(C4(O)CCN(Cc5ccnc(Nc6ccccc6)c5F)CC4)ccc3C2=O)C(=O)N1 (stereo not drawn) [Compound 198],> 70,< 10,
O=C1CCC(N2Cc3cc(C4CCN(Cc5cccc(N6C(=O)Cc7ccccc76)c5)CC4)ccc3C2=O)C(=O)N1 (stereo not drawn) [Compound 95],50 to 70,< 10,
O=C1CCC(N2Cc3cc(C4CCN(Cc5ccc(S(=O)(=O)Nc6ccccc6)cc5)CC4)ccc3C2=O)C(=O)N1 (stereo not drawn) [Compound 91],50 to 70,< 10,
O=C1CCC(N2Cc3cc(C4(O)CCN(Cc5cccc6scnc56)CC4)ccc3C2=O)C(=O)N1 (stereo not drawn) [Compound 241],> 70,< 10,
O=C1CCC(N2Cc3cc(C4(O)CCN(Cc5ccc(-c6ccccc6)cc5)CC4)ccc3C2=O)C(=O)N1 (stereo not drawn) [Compound 206],> 70,< 10,
N#CC1(COc2ccccc2CN2CCC(O)(c3ccc4c(c3)CN(C3CCC(=O)NC3=O)C4=O)CC2)CC1 (stereo not drawn) [Compound 209],50 to 70,10 to 30,
O=C1CCC(N2Cc3cc(C4CCN(Cc5cccc(Nc6ncc(F)cn6)c5)CC4)ccc3C2=O)C(=O)N1 (stereo not drawn) [Compound 226],30 to 50,10 to 30,
Cc1ccc(N2Cc3ccc(CN4CCC(c5ccc6c(c5)CN(C5CCC(=O)NC5=O)C6=O)CC4)cc3C2=O)cc1 (stereo not drawn) [Compound 216],50 to 70,< 10,
CN(C(=O)c1ccccc1)c1ccc(CN2CCC(c3ccc4c(c3)CN(C3CCC(=O)NC3=O)C4=O)CC2)cc1 (stereo not drawn) [Compound 170],50 to 70,10 to 30,
O=C1CCC(N2Cc3cc(C4(O)CCN(Cc5ccccc5C(F)(F)F)CC4)ccc3C2=O)C(=O)N1 (stereo not drawn) [Compound 249],> 70,< 10,
"O=C1CCC(N2Cc3cc(C4CCN(Cc5ccc6c(c5)C(=O)N(c5ccccc5)CCC6)CC4)ccc3C2=O)C(=O)N1 (stereo not drawn) [Compound 183, 3-(1-oxo-5-(1-((1-oxo-2-phenyl-2,3,4,5-tetrahydro-1H-benzo[c]azepin-8-yl)methyl)piperidin-4-yl)isoindolin-2-yl)piperidine-2,6-dione]",50 to 70,< 10,
O=C1CCC(N2Cc3cc(C4(O)CCN(Cc5ccccc5OCc5ccccc5)CC4)ccc3C2=O)C(=O)N1 (stereo not drawn) [Compound 276],50 to 70,< 10,
"O=C1CCC(N2Cc3cc(C4CCN(Cc5ccc6c(c5)C(=O)N(c5ccccc5)C6)CC4)ccc3C2=O)C(=O)N1 (stereo not drawn) [Compound 146, 3-(1-oxo-5-(1-((3-oxo-2-phenylisoindolin-5-yl)methyl)piperidin-4-yl)isoindolin-2-yl)piperidine-2,6-dione]",> 70,10 to 30,
O=C1CCC(N2Cc3cc(C4(O)CCN(Cc5ccc(F)cc5)CC4)ccc3C2=O)C(=O)N1 (stereo not drawn) [Compound 258],> 70,< 10,
"O=C1CCC(N2Cc3cc(C4CCN(Cc5cccc(Nc6ccccc6)c5)CC4)ccc3C2=O)C(=O)N1 (stereo not drawn) [Compound 46, 3-(1-oxo-5-(1-(3-(phenylamino)benzyl)piperidin-4-yl)isoindolin-2-yl)piperidine-2,6-dione]",50 to 70,< 10,
O=C1CCC(N2Cc3cc(C4(O)CCN(Cc5ccc(F)c(Nc6ccccc6)n5)CC4)ccc3C2=O)C(=O)N1 (stereo not drawn) [Compound 197],50 to 70,< 10,
O=C1CCC(N2Cc3cc(C4CCN(Cc5cccc(S(=O)(=O)N6CCOc7ccccc76)c5)CC4)ccc3C2=O)C(=O)N1 (stereo not drawn) [Compound 84],50 to 70,30 to 150,
O=C1CCC(N2Cc3cc(C4CCN(Cc5cc(Nc6ccccc6)ncn5)CC4)ccc3C2=O)C(=O)N1 (stereo not drawn) [Compound 116],30 to 50,30 to 150,
"N#CC1(COc2ccc(CN3CCC(c4ccc5c(c4)CN(C4CCC(=O)NC4=O)C5=O)CC3)cc2)CC1 (stereo not drawn) [Compound 45, 1-((4-((4-(2-(2,6-dioxopiperidin-3-yl)-1-oxoisoindolin-5-yl)piperidin-1-yl)methyl)phenoxy)methyl)cyclopropane-1-carbonitrile]",50 to 70,10 to 30,
N#Cc1cccc(CN2CCC(O)(c3ccc4c(c3)CN(C3CCC(=O)NC3=O)C4=O)CC2)c1 (stereo not drawn) [Compound 238],> 70,< 10,
O=C1CCC(N2Cc3cc(C4CCN(Cc5cccc(Nc6ncccn6)c5)CC4)ccc3C2=O)C(=O)N1 (stereo not drawn) [Compound 149],50 to 70,< 10,
"O=C1CCC(N2Cc3cc(C4CCN(Cc5cccc(Nc6ccccn6)c5)CC4)ccc3C2=O)C(=O)N1 (stereo not drawn) [Compound 42, 3-(1-oxo-5-(1-(3-(pyridin-2-ylamino)benzyl)piperidin-4-yl)isoindolin-2-yl)piperidine-2,6-dione]",50 to 70,< 10,

# From patent publication US20230002397A1, “SMALL MOLECULE DEGRADERS OF HELIOS AND METODS OF USE” (DANA-FARBER CANCER INSTITUTE, INC., priority 2019, published 2023)
